Data set [1] concerns SARS‐CoV‐2 spike pseudovirus. Format: cell-based.
The subject of data set [2] is TMPRSS2. Put plainly: TMPRSS2 activity measurement. It is filed as cell-based, human. The note with it: 293T‐T2 cells, 2 h at 37°C; Boc‐Phe‐Ser‐Arg‐MCA 100 μM, fluorescence 360/460 nm; LL‐37 0–20 μg/mL, CM and E64d 0–100 μM. The protocol: 293T‐T2 cells (5 × 10^4/well) in a black 96‐well flat‐bottom plate were treated for 2 h at 37°C with LL‐37 (0, 1, 5, 10, 20 μg/mL), camostat mesylate (0, 0.1, 0.5, 1, 5, 10, 50, 100 μM, MedChemExpress), or E64d (0, 0.1, 0.5, 1, 5, 10, 50, 100 μM, MedChemExpress). The peptide and inhibitors were prepared with DMEM free of FBS. To measure the proteolytic activity of TMPRSS2, the medium was replaced with 100 μL of DMEM free of FBS and phenol red and containing 100 μM of Boc‐Phe‐Ser‐Arg‐MCA (Peptide, Japan). The fluorescence intensity was measured after 2 h of incubation at 37°C using a microplate reader (Biotek, USA). The excitation/emission wavelengths were 360/460 nm. The values were expressed as a percent of fluorescence intensity relative to the control. Camostat mesylate and E64d were used as the positive and negative controls respectively. All procedures were carried out in the dark.

Data set [3] concerns SARS‐CoV‐2. The settings on record: cited from earlier work.
The subject of data set [4] is SARS‐CoV‐2 spike. It is filed as cell-based.
The test system of data set [5] is Delta spike. It is filed as cell-based, SARS‐CoV‐2 Delta.
The subject of data set [6] is BA.1 spike. It is filed as cell-based, SARS‐CoV‐2 Omicron BA.1.
Data set [7] has as its system BA.4/5 spike. It is filed as cell-based, SARS‐CoV‐2 Omicron BA.4/5.
The subject of data set [8] is Beta spike pseudovirus. Format: cell-based, SARS‐CoV‐2 Beta.
Data set [9] concerns Delta spike pseudovirus. Format: cell-based, SARS‐CoV‐2 Delta.
The test system of data set [10] is BA.1 spike pseudovirus. Format: cell-based, SARS‐CoV‐2 Omicron BA.1.
The test system of data set [11] is BA.2 spike pseudovirus. Format: cell-based, SARS‐CoV‐2 Omicron BA.2.
Data set [12] has as its system BA.2.12.1 spike pseudovirus. It is filed as cell-based, SARS‐CoV‐2 Omicron BA.2.12.1.
For data set [13], the system named is BA.3 spike pseudovirus. It is filed as cell-based, SARS‐CoV‐2 Omicron BA.3.
Data set [14] has as its system BA.4/5 spike pseudovirus. Format: cell-based, SARS‐CoV‐2 Omicron BA.4/5.
Data set [15] has as its system SARS‐CoV‐2 spike pseudovirus. It is filed as cell-based. This is another data set of the same source.
Data set [16] has as its system SARS‐CoV‐2 spike pseudovirus. Format: cell-based. The source holds these as a separate data set.
The test system of data set [17] is SARS‐CoV‐2 spike pseudovirus (S1 and S2 subunits) attached to 293T‐A2 cells. Format: cell-based.
The subject of data set [18] is BA.1 spike pseudovirus (S1 and S2 subunits) attached to 293T‐A2 cells. Format: cell-based, SARS‐CoV‐2 Omicron BA.1.
Data set [19] deals with BA.4/5 spike pseudovirus (S1 and S2 subunits) attached to 293T‐A2 cells. It is filed as cell-based, SARS‐CoV‐2 Omicron BA.4/5.
In data set [20] the test system is SARS‐CoV‐2 spike S2 subunit. Format: binding. The settings on record: pH 9.6.
For data set [21], the system named is S2 subunit of BA.1 spike. Format: binding, SARS‐CoV‐2 Omicron BA.1.
Data set [22] has as its system SARS‐CoV‐2 spike S1 and S2 subunits. It is filed as binding.
Data set [23] has as its system 293T‐A2 and 293T‐Mock cell membranes. Format: cell-based. The note with it: 293T-A2 vs 293T-Mock cells treated 2 h with LL-37; western blot (Figure S4A). A general note: A western blot detects proteins with antibodies after separation by electrophoresis.
Data set [24] concerns SARS‐CoV‐2 spike S2 subunit. It is filed as cell-based.
Data set [25] has as its system Delta spike S2 subunit. Format: cell-based, SARS‐CoV‐2 Delta.
For data set [26], the system named is BA.1 spike S2 subunit. Format: cell-based, SARS‐CoV‐2 Omicron BA.1.
Data set [27] relates to BA.4/5 spike S2 subunit. It is filed as cell-based, SARS‐CoV‐2 Omicron BA.4/5.
In data set [28] the test system is SARS‐CoV‐2 spike. Further details: species or system mouse (BALB/c). The note with it: mouse, in vivo.
Data set [29] deals with SARS‐CoV‐2 spike. Details: species or system mouse (BALB/c). The settings on record: mouse, in vivo. This is another data set of the same source.
Data set [30] has as its system BA.4/5 spike. Further details: species or system mouse (BALB/c). The settings on record: mouse, in vivo.
Data set [31] relates to BA.4/5 spike. Details: species or system mouse (BALB/c). The note with it: mouse, in vivo. The source holds these as a separate data set.
The conditions of data set [32]: no reference given; cited from earlier work.
The test system of data set [33] is receptor binding domain (RBD) of spike S1 and the ACE2 receptor. The note with it: by binding to the RBD and/or ACE2; ref [36], [37], [41], [42]; cited from earlier work.
The conditions of data set [34]: ref [44]; cited from earlier work.
In data set [35] the test system is TLR3, TLR7, or TLR9. The note with it: binds DNA/RNA, elevates type I interferon response; ref [63], [64]; cited from earlier work.
The subject of data set [36] is FPRL‐1 and CXCR2. The note with it: receptors involved in chemotaxis of monocytes, neutrophils and lymphocytes; ref [65], [66]; cited from earlier work.
For data set [37], the system named is FPR‐2 receptor. The settings on record: leading to immunosuppression; ref [67], [68]; cited from earlier work.
In data set [38] the test system is NF‐kB p50 and p65 subunits. The settings on record: leading to immunosuppression; ref [67], [68]; cited from earlier work.

“Also recorded” adds a separate entry of the source. Structures can show the parent of a compound that is named as a salt.

In the case of `CN(C)C(=O)COC(=O)Cc1ccc(OC(=O)c2ccc(NC(=N)N)cc2)cc1` [CM, camostat mesylate, reference compound], in [1], the “reduction of pseudovirus‐induced RLU” value is listed as “about 60%”. Further, in data set [2], the “suppression of cellular TMPRSS2 activity” value was “suppressed cellular TMPRSS2 activity at sub‐micromolar concentrations”. The “antiviral activity against SARS‐CoV‐2” value in data set [3] is reported as “shows antiviral activity against SARS‐CoV‐2”.
Consider `O=C(CC1NCCCC1O)Cn1cnc2cc(Br)c(Cl)cc2c1=O` (stereo not shown) [halofuginone], for which the “inhibition of SARS‐CoV‐2 entry and replication” value in data set [3] was “high inhibition”.
For the compound `COC(=O)C[C@](O)(CCCC(C)(C)O)C(=O)O[C@@H]1C(OC)=C[C@]23CCCN2CCc2cc4c(cc2[C@H]13)OCO4` [homoharringtonine], the “inhibition of SARS‐CoV‐2 entry and replication” value in data set [3] was “high inhibition”.
For `CNC(=O)[C@@H](NC(=O)[C@H](CC(C)C)[C@H](O)C(=O)NO)C(C)(C)C` [marimastat, reference compound], in data set [1], the “reduction of pseudovirus‐induced RLU” value is on record as approximately 25%. In addition, in data set [3], the “inhibition of SARS‐CoV‐2‐induced membrane fusion” value is recorded as “inhibitory activity against SARS‐CoV‐2‐induced membrane fusion at sub‐micromolar levels”.
For the compound “KRKSFDGFKELILKGRQEIKFKRDIFLVNLRETRPSV [KR‐37, reference compound]”, the “inhibition of cell–cell fusion” value in [4], in data set [5], in data set [6] and in data set [7] was “showed no inhibition” in each case.
“LLGDFFRKSKEKIGKEFKRIVQRIKDFLRNLVPRTES [LL‐37]”: the “inhibition of pseudovirus entry” value in [8] is listed as “significantly inhibit”; in data set [9] it was “significantly inhibit”; in data set [10], “inhibitory effects were compromised”; in data set [11] it was “inhibitory effects were compromised”; in data set [12] it was “inhibitory effects were compromised”; in data set [13], “inhibitory effects were compromised”. Also, the “inhibition of pseudovirus entry” value in [14] is listed as “inhibitory effects were compromised”. For the same compound, the “prevention of pseudovirus entry” value in data set [15] was “prevented; also recorded: not if added 2 h post infection (hpi) and 4 hpi”. For the same compound, the “reduction of RLU caused by LL‐37 with endosomal inhibitor” value in [16] is “no significant difference”. Moreover, the “plasma membrane‐attached spike (S1 and S2 subunits)” value in [17], in data set [18] and in data set [19] was “equal quantity” throughout. In addition, the “inhibition of cell–cell fusion” value in [4] is “inhibited”; in data set [5], “inhibited”; in [6], “compromised inhibition”; in data set [7], “compromised inhibition”. Also, the “inhibition of fusion, pretreatment vs treatment during infection” value in data set [4] (10 μg/mL) and in data set [5] (10 μg/mL) was “stronger inhibition of fusion than treatment during infection” in each case. The figures for the “binding of S2 subunit to immobilised LL‐37” value in data set [20] and in data set [21] were “much stronger binding” and “much lower binding”, respectively. Moreover, in data set [22], the “spike subunit bound to plasma membrane facilitated by LL‐37” value is on record as “S2 subunit rather than the S1 subunit”. Moreover, in data set [22], the “spike subunits bridged by LL‐37 to plasma membranes” value is on record as “bridged more S2 subunits than S1 subunits”. For the same compound, the “LL‐37 attachment to cell membrane” value in data set [23] was “could attach to the cell membrane independent of the ACE2 expression”. Besides, the “generation of S2' fragment” value in data set [24] is given as “remarkably reduced”; in data set [25], “consistent result with that of SARS‐CoV‐2”; in data set [26] it was “did not significantly reduce”; in data set [27], “did not significantly reduce”. The “suppression of cellular TMPRSS2 activity” value in [2] was “not LL‐37 or E64d suppressed”. For the same compound, the “IgM responses and titers” value was “elevated IgM responses and titers” in data set [28]; “no difference and low levels to background” in [30]. Further, the IgG responses result in [29] was “enhanced”. For the same compound, the “IgG responses and titers” value in data set [29] is “no significant difference”; in data set [31] it was “no difference and low levels to background”. Further, the “overall positive net charge” value in [32] was “+6”. Also, the “block of RBD–ACE2 interaction” value in data set [33] is “block the interaction”. Further, in data set [34], the “attachment to lipid bilayer” value is listed as “can attach to lipid bilayer via the C‐terminal VPRTES tail”. The “effect on TLR signalling” value in data set [35] is “augment signalling via TLR3, TLR7, or TLR9”. In [36], the receptor binding entry is “directly bind with receptors such as FPRL‐1 and CXCR2”. Further, in data set [37], the receptor interaction result is listed as “interact with the FPR‐2 receptor”. For the same compound, the “prevention of NF‐kB translocation” value in [38] was “prevent the translocation of NF‐kB p50 and p65 subunits”.
On to α1‐antitrypsin, for which the “inhibition of SARS‐CoV‐2 entry and replication” value in data set [3] was “high inhibition”.
